From ChEMBL document CHEMBL4004849, “Tetrazolylmethyl quinolines: Design, docking studies, synthesis, anticancer and antifungal analyses” (2017)
≈ marks a conversion by molar mass, not a printed value. Calls of active or inactive are those of the source. No cut-off for these calls is given here.

How the values were obtained:
Format in all cases: functional
OVCAR-5 = assay: Growth inhibition of human OVCAR5 cells at 10^-5 M incubated for 48 hrs by sulforhodamine B assay relative to control
KM12 = assay: Growth inhibition of human KM12 cells at 10^-5 M incubated for 48 hrs by sulforhodamine B assay relative to control
NCI-H23 = assay: Growth inhibition of human NCI-H23 cells at 10^-5 M incubated for 48 hrs by sulforhodamine B assay relative to control
SK-MEL-2 = assay: Growth inhibition of human SK-MEL-2 cells at 10^-5 M incubated for 48 hrs by sulforhodamine B assay relative to control
Hs-578T = assay: Growth inhibition of human Hs 578T cells at 10^-5 M incubated for 48 hrs by sulforhodamine B assay relative to control
HL-60(TB) = assay: Growth inhibition of human HL-60(TB) cells at 10^-5 M incubated for 48 hrs by sulforhodamine B assay relative to control
HCT-15 = assay: Growth inhibition of human HCT15 cells at 10^-5 M incubated for 48 hrs by sulforhodamine B assay relative to control
MDA-MB-435 = assay: Growth inhibition of human MDA-MB-435 cells at 10^-5 M incubated for 48 hrs by sulforhodamine B assay relative to control
COLO 205 = assay: Growth inhibition of human COLO205 cells at 10^-5 M incubated for 48 hrs by sulforhodamine B assay relative to control
HCC 2998 = assay: Growth inhibition of human HCC2998 cells at 10^-5 M incubated for 48 hrs by sulforhodamine B assay relative to control
MDA-MB-231 = assay: Growth inhibition of human MDA-MB-231/ATCC cells at 10^-5 M incubated for 48 hrs by sulforhodamine B assay relative to control
UO-31 = assay: Growth inhibition of human UO31 cells at 10^-5 M incubated for 48 hrs by sulforhodamine B assay relative to control
TK-10 = assay: Growth inhibition of human TK10 cells at 10^-5 M incubated for 48 hrs by sulforhodamine B assay relative to control
Aspergillus fumigatus [1] = assay: Antifungal activity against Aspergillus fumigatus at 100 ug/ml by disc diffusion method; conditions: read-out: IZ
SK-MEL-28 = assay: Growth inhibition of human SK-MEL-28 cells at 10^-5 M incubated for 48 hrs by sulforhodamine B assay relative to control
MCF7 = assay: Growth inhibition of human MCF7 cells at 10^-5 M incubated for 48 hrs by sulforhodamine B assay relative to control
NCI/ADR-RES = assay: Growth inhibition of human NCI-ADR-RES cells at 10^-5 M incubated for 48 hrs by sulforhodamine B assay relative to control
OVCAR-4 = assay: Growth inhibition of human OVCAR4 cells at 10^-5 M incubated for 48 hrs by sulforhodamine B assay relative to control
Candida albicans [2] = assay: Antifungal activity against Candida albicans at 100 ug/ml by disc diffusion method; conditions: read-out: IZ
SW-620 = assay: Growth inhibition of human SW620 cells at 10^-5 M incubated for 48 hrs by sulforhodamine B assay relative to control
OVCAR-3 = assay: Growth inhibition of human OVCAR3 cells at 10^-5 M incubated for 48 hrs by sulforhodamine B assay relative to control
Malme-3M = assay: Growth inhibition of human MALME-3M cells at 10^-5 M incubated for 48 hrs by sulforhodamine B assay relative to control
SR = assay: Growth inhibition of human SR cells at 10^-5 M incubated for 48 hrs by sulforhodamine B assay relative to control
MDA-MB-468 = assay: Growth inhibition of human MDA-MB-468 cells at 10^-5 M incubated for 48 hrs by sulforhodamine B assay relative to control
EKVX = assay: Growth inhibition of human EKVX cells at 10^-5 M incubated for 48 hrs by sulforhodamine B assay relative to control
BT-549 = assay: Growth inhibition of human BT549 cells at 10^-5 M incubated for 48 hrs by sulforhodamine B assay relative to control
T47D = assay: Growth inhibition of human T47D cells at 10^-5 M incubated for 48 hrs by sulforhodamine B assay relative to control
SF-539 = assay: Growth inhibition of human SF539 cells at 10^-5 M incubated for 48 hrs by sulforhodamine B assay relative to control
SK-MEL-5 = assay: Growth inhibition of human SK-MEL-5 cells at 10^-5 M incubated for 48 hrs by sulforhodamine B assay relative to control
SF-295 = assay: Growth inhibition of human SF295 cells at 10^-5 M incubated for 48 hrs by sulforhodamine B assay relative to control
SNB-75 = assay: Growth inhibition of human SNB75 cells at 10^-5 M incubated for 48 hrs by sulforhodamine B assay relative to control
SK-OV-3 = assay: Growth inhibition of human SKOV3 cells at 10^-5 M incubated for 48 hrs by sulforhodamine B assay relative to control
K562 = assay: Growth inhibition of human K562 cells at 10^-5 M incubated for 48 hrs by sulforhodamine B assay relative to control
ACHN = assay: Growth inhibition of human ACHN cells at 10^-5 M incubated for 48 hrs by sulforhodamine B assay relative to control
UACC-257 = assay: Growth inhibition of human UACC257 cells at 10^-5 M incubated for 48 hrs by sulforhodamine B assay relative to control
Aspergillus fumigatus [3] = assay: Antifungal activity against Aspergillus fumigatus after 24 hrs by serial dilution method
NCI-H460 = assay: Growth inhibition of human NCI-H460 cells at 10^-5 M incubated for 48 hrs by sulforhodamine B assay relative to control
LOX IMVI = assay: Growth inhibition of human LOXIMVI cells at 10^-5 M incubated for 48 hrs by sulforhodamine B assay relative to control
UACC-62 = assay: Growth inhibition of human UACC62 cells at 10^-5 M incubated for 48 hrs by sulforhodamine B assay relative to control
SN12C = assay: Growth inhibition of human SN12C cells at 10^-5 M incubated for 48 hrs by sulforhodamine B assay relative to control
786-0 = assay: Growth inhibition of human 786-0 cells at 10^-5 M incubated for 48 hrs by sulforhodamine B assay relative to control
SNB-19 = assay: Growth inhibition of human SNB19 cells at 10^-5 M incubated for 48 hrs by sulforhodamine B assay relative to control
OVCAR-8 = assay: Growth inhibition of human OVCAR8 cells at 10^-5 M incubated for 48 hrs by sulforhodamine B assay relative to control
M14 = assay: Growth inhibition of human M14 cells at 10^-5 M incubated for 48 hrs by sulforhodamine B assay relative to control
Candida albicans [4] = assay: Antifungal activity against Candida albicans after 24 hrs by serial dilution method

## Clc1nc2ccccc2cc1Cn1nnnc1CSc1ccccc1
OVCAR-5
  growth inhibition (GI): Active
KM12
  growth inhibition (GI): Active
NCI-H23
  growth inhibition (GI): Active
SK-MEL-2
  growth inhibition (GI): Active
Hs-578T
  growth inhibition (GI): Active
HL-60(TB)
  growth inhibition (GI): Active
HCT-15
  growth inhibition (GI): Active
MDA-MB-435
  growth inhibition (GI): Active
COLO 205
  growth inhibition (GI): Active
HCC 2998
  growth inhibition (GI): Active
MDA-MB-231
  growth inhibition (GI): Active
UO-31
  growth inhibition (GI): Active
TK-10
  growth inhibition (GI): Active
Aspergillus fumigatus [1]
  zone of inhibition at 100 µg/mL: 16 mm
SK-MEL-28
  growth inhibition (GI): Active
MCF7
  growth inhibition (GI): Active
NCI/ADR-RES
  growth inhibition (GI): Active
OVCAR-4
  growth inhibition (GI): Active
Candida albicans [2]
  zone of inhibition at 100 µg/mL: 12 mm
SW-620
  growth inhibition (GI): Active
OVCAR-3
  growth inhibition (GI): Active
Malme-3M
  growth inhibition (GI): Active
SR
  growth inhibition (GI): Active
MDA-MB-468
  growth inhibition (GI): Active
EKVX
  growth inhibition (GI): Active
BT-549
  growth inhibition (GI): Active
T47D
  growth inhibition (GI): Active
SF-539
  growth inhibition (GI): Active
SK-MEL-5
  growth inhibition (GI): Active
SF-295
  growth inhibition (GI): Active
SNB-75
  growth inhibition (GI): Active
SK-OV-3
  growth inhibition (GI): Active
K562
  growth inhibition (GI): Active
ACHN
  growth inhibition (GI): Active
UACC-257
  growth inhibition (GI): Active
Aspergillus fumigatus [3]
  MIC: 25 µg/mL (≈ 68 µM)
NCI-H460
  growth inhibition (GI): Active
LOX IMVI
  growth inhibition (GI): Active
UACC-62
  growth inhibition (GI): Active
SN12C
  growth inhibition (GI): Active
786-0
  growth inhibition (GI): Active
SNB-19
  growth inhibition (GI): Active
OVCAR-8
  growth inhibition (GI): Active
M14
  growth inhibition (GI): Active
Candida albicans [4]
  MIC: 10 µg/mL (≈ 27.2 µM)
